Legend:
[1] = Cytotoxicity against human HepG2(2.2.15) cells; type: cell-based
Hepatitis B virus [2] = assay: Antiviral activity against Hepatitis B virus infected in human HepG2(2.2.15) cells assessed as reduction in hepatitis B e-antigen release; type: functional, organism-based
Hepatitis B virus [3] = assay: Antiviral activity against Hepatitis B virus infected in human HepG2(2.2.15) cells assessed as reduction in viral DNA replication; type: functional, organism-based
[4] = Selectivity index, ratio of CC50 for human HepG2(2.2.15) cells to IC50 for HBV by viral DNA replication detection assay; type: functional
Hepatitis B virus [5] = assay: Antiviral activity against Hepatitis B virus infected in human HepG2(2.2.15) cells assessed as reduction in hepatitis B surface antigen release; type: functional, organism-based

Row | SMILES | CC50 [1] [µM] | IC50 (Hepatitis B virus [2]) [µM] | IC50 (Hepatitis B virus [3]) [µM] | Ratio CC50/IC50 [4] | IC50 (Hepatitis B virus [5]) [µM]
1 | CC1(C)[C@@H](O)CC[C@]2(C)[C@H]3C(=O)C=C4[C@@H]5C[C@@](C)(C(=O)OCCO)CC[C@]5(C)CC[C@@]4(C)[C@]3(C)CC[C@@H]12 | 380 | > 1920 | 298 | 1.3 | 1010
2 | CCOC(=O)CCCOC(=O)[C@@]1(C)CC[C@]2(C)CC[C@]3(C)C(=CC[C@@H]4[C@@]5(C)CC[C@H](OC(=O)c6cc(=O)c7ccccc7o6)C(C)(C)[C@@H]5CC[C@]43C)[C@@H]2C1 | > 1180 | > 1180 | > 294 | – | > 1180
3 | CCOC(=O)CCCOC(=O)[C@@]1(C)CC[C@]2(C)CC[C@]3(C)C(=CC[C@@H]4[C@@]5(C)CC[C@H](OC(=O)/C=C/c6cc(OC)c(OC)c(OC)c6)C(C)(C)[C@@H]5CC[C@]43C)[C@@H]2C1 | > 1230 | > 1230 | > 307 | – | > 1230
4 | CCOC(=O)CCCOC(=O)[C@@]1(C)CC[C@]2(C)CC[C@]3(C)C(=CC[C@@H]4[C@@]5(C)CC[C@H](O)C(C)(C)[C@@H]5CC[C@]43C)[C@@H]2C1 | 530 | > 1170 | > 292 | – | 638
5 | COc1cccc(/C=C/C(=O)O[C@H]2CC[C@]3(C)[C@H]4CC=C5[C@@H]6C[C@@](C)(C(=O)OCc7ccc(C(F)(F)F)cc7)CC[C@]6(C)CC[C@@]5(C)[C@]4(C)CC[C@H]3C2(C)C)c1 | > 899 | > 899 | > 225 | – | > 899
6 | CCOC(=O)CCCCCOC(=O)[C@@]1(C)CC[C@]2(C)CC[C@]3(C)C(=CC(=O)[C@@H]4[C@@]5(C)CC[C@H](O)C(C)(C)[C@@H]5CC[C@]43C)[C@@H]2C1 | 54.7 | > 1750 | 47.2 | 1.2 | 209
7 | CC1(C)[C@@H](O)CC[C@]2(C)[C@H]3C(=O)C=C4[C@@H]5C[C@@](C)(C(=O)OCC6CCOCC6)CC[C@]5(C)CC[C@@]4(C)[C@]3(C)CC[C@@H]12 | > 1910 | > 1910 | > 479 | – | > 1910
8 | CC1(C)[C@@H](O)CC[C@]2(C)[C@H]3C(=O)C=C4[C@@H]5C[C@@](C)(C(=O)OCCCCCCO)CC[C@]5(C)CC[C@@]4(C)[C@]3(C)CC[C@@H]12 | 67.3 | > 1250 | 47.7 | 1.4 | 129
9 | CCCCCCOC(=O)[C@@]1(C)CC[C@]2(C)CC[C@]3(C)C(=CC(=O)[C@@H]4[C@@]5(C)CC[C@H](O)C(C)(C)[C@@H]5CC[C@]43C)[C@@H]2C1 | 175 | > 1700 | 66.2 | 2.6 | > 1700
10 | CCOCCOC(=O)[C@@]1(C)CC[C@]2(C)CC[C@]3(C)C(=CC(=O)[C@@H]4[C@@]5(C)CC[C@H](O)C(C)(C)[C@@H]5CC[C@]43C)[C@@H]2C1 | 541 | > 1720 | 198 | 2.7 | 835
11 | CC1(C)[C@@H](O)CC[C@]2(C)[C@H]3C(=O)C=C4[C@@H]5C[C@@](C)(C(=O)OCC6CC6)CC[C@]5(C)CC[C@@]4(C)[C@]3(C)CC[C@@H]12 | 696 | > 1100 | 67 | 10.4 | 678
12 | CC1(C)[C@@H](O)CC[C@]2(C)[C@H]3C(=O)C=C4[C@@H]5C[C@@](C)(C(=O)OCc6cccc(Cl)c6)CC[C@]5(C)CC[C@@]4(C)[C@]3(C)CC[C@@H]12 | > 1850 | > 1850 | 529 | >3.5 | > 1850
13 | CC1(C)[C@@H](OC(=O)c2cc(=O)c3ccccc3o2)CC[C@]2(C)[C@H]3CC=C4[C@@H]5C[C@@](C)(C(=O)OCc6ccc(C(F)(F)F)cc6)CC[C@]5(C)CC[C@@]4(C)[C@]3(C)CC[C@@H]12 | > 1170 | > 1170 | > 293 | – | > 1170
14 | CC1(C)[C@@H](O)CC[C@]2(C)[C@H]3CC=C4[C@@H]5C[C@@](C)(C(=O)OCc6ccc(C(F)(F)F)cc6)CC[C@]5(C)CC[C@@]4(C)[C@]3(C)CC[C@@H]12 | > 1500 | > 1500 | > 375 | – | > 1500
15 | CC1(C)[C@@H](O)CC[C@]2(C)[C@H]3C(=O)C=C4[C@@H]5C[C@@](C)(C(=O)OCc6cc(F)cc(F)c6)CC[C@]5(C)CC[C@@]4(C)[C@]3(C)CC[C@@H]12 | > 1230 | > 1230 | > 307 | – | > 1230
16 | C=CCCOC(=O)[C@@]1(C)CC[C@]2(C)CC[C@]3(C)C(=CC(=O)[C@@H]4[C@@]5(C)CC[C@H](O)C(C)(C)[C@@H]5CC[C@]43C)[C@@H]2C1 | > 1750 | > 1750 | 332 | >5.3 | > 1750

Row | SMILES | CC50 [1] [µM] | IC50 (Hepatitis B virus [2]) [µM] | IC50 (Hepatitis B virus [3]) [µM] | Ratio CC50/IC50 [4] | IC50 (Hepatitis B virus [5]) [µM]
17 | COc1cccc(/C=C/C(=O)O[C@H]2CC[C@]3(C)[C@H]4CC=C5[C@@H]6C[C@@](C)(C(=O)OCc7ccc(Br)cc7F)CC[C@]6(C)CC[C@@]5(C)[C@]4(C)CC[C@H]3C2(C)C)c1 | > 1000 | > 1000 | > 250 | – | > 1000
18 | CC1(C)[C@@H](O)CC[C@]2(C)[C@H]3C(=O)C=C4[C@@H]5C[C@@](C)(C(=O)OCc6ccc(Br)cc6F)CC[C@]5(C)CC[C@@]4(C)[C@]3(C)CC[C@@H]12 | > 1430 | > 805 | 18.1 | >79 | > 805
19 | CC1(C)[C@@H](O)CC[C@]2(C)[C@H]3C(=O)C=C4[C@@H]5C[C@@](C)(C(=O)OCc6ccc(C(F)(F)F)cc6)CC[C@]5(C)CC[C@@]4(C)[C@]3(C)CC[C@@H]12 | > 1370 | > 1370 | 5.36 | >255.9 | > 1370
20 | CC(=O)O[C@H]1CC[C@]2(C)[C@H]3C(=O)C=C4[C@@H]5C[C@@](C)(C(=O)O)CC[C@]5(C)CC[C@@]4(C)[C@]3(C)CC[C@H]2C1(C)C [ACETOXOLONE] | 518 | > 518 | 121 | 4.3 | 1000
21 | COC(=O)[C@@]1(C)CC[C@]2(C)CC[C@]3(C)C(=CC(=O)[C@@H]4[C@@]5(C)CC[C@H](O)C(C)(C)[C@@H]5CC[C@]43C)[C@@H]2C1 | > 1740 | > 1740 | > 444 | – | > 1740
22 | CC1(C)[C@@H](O)CC[C@]2(C)[C@H]3C[C@H]4O[C@]45[C@@H]4C[C@@](C)(C(=O)O)CC[C@]4(C)CC[C@@]5(C)[C@]3(C)CC[C@@H]12 | 35.7 | > 1810 | 18.4 | 1.9 | 43.3
23 | CC1(C)[C@@H](O)CC[C@]2(C)[C@H]3CC=C4[C@@H]5C[C@@](C)(C(=O)OCc6ccc(Br)cc6F)CC[C@]5(C)CC[C@@]4(C)[C@]3(C)CC[C@@H]12 | 1150 | > 1530 | > 382 | – | > 1530
24 | CC1(C)[C@@H](OC(=O)c2cc(=O)c3ccccc3o2)CC[C@]2(C)[C@H]3CC=C4[C@@H]5C[C@@](C)(C(=O)OCC(N)=O)CC[C@]5(C)CC[C@@]4(C)[C@]3(C)CC[C@@H]12 | > 944 | > 944 | > 236 | – | > 944
25 | COc1cc(/C=C/C(=O)O[C@H]2CC[C@]3(C)[C@H]4CC=C5[C@@H]6C[C@@](C)(C(=O)OCc7ccc(C(F)(F)F)cc7)CC[C@]6(C)CC[C@@]5(C)[C@]4(C)CC[C@H]3C2(C)C)cc(OC)c1OC | > 987 | > 987 | > 247 | – | > 987
26 | CCCCCCCCCCOC(=O)[C@@]1(C)CC[C@]2(C)CC[C@]3(C)C(=CC(=O)[C@@H]4[C@@]5(C)CC[C@H](O)C(C)(C)[C@@H]5CC[C@]43C)[C@@H]2C1 | > 1030 | > 1030 | > 257 | – | > 1030
27 | CC1(C)[C@@H](O)CC[C@]2(C)[C@H]3C(=O)C=C4[C@@H]5C[C@@](C)(C(=O)OCc6cc(C(F)(F)F)cc(C(F)(F)F)c6)CC[C@]5(C)CC[C@@]4(C)[C@]3(C)CC[C@@H]12 | > 1700 | > 1700 | > 426 | – | > 1700
28 | CCCCOC(=O)[C@@]1(C)CC[C@]2(C)CC[C@]3(C)C(=CC(=O)[C@@H]4[C@@]5(C)CC[C@H](O)C(C)(C)[C@@H]5CC[C@]43C)[C@@H]2C1 | > 986 | > 986 | > 247 | – | > 986
29 | CCCCCCCCOC(=O)[C@@]1(C)CC[C@]2(C)CC[C@]3(C)C(=CC(=O)[C@@H]4[C@@]5(C)CC[C@H](O)C(C)(C)[C@@H]5CC[C@]43C)[C@@H]2C1 | > 1450 | > 1450 | > 362 | – | > 1450
30 | CC1(C)[C@@H](OC(=O)c2cc(=O)c3ccccc3o2)CC[C@]2(C)[C@H]3CC=C4[C@@H]5C[C@@](C)(C(=O)OCc6ccc(Br)cc6F)CC[C@]5(C)CC[C@@]4(C)[C@]3(C)CC[C@@H]12 | > 1080 | > 1080 | > 271 | – | > 1080
31 | COc1cc(/C=C/C(=O)O[C@H]2CC[C@]3(C)[C@H]4CC=C5[C@@H]6C[C@@](C)(C(=O)OCc7ccc(Br)cc7F)CC[C@]6(C)CC[C@@]5(C)[C@]4(C)CC[C@H]3C2(C)C)cc(OC)c1OC | 935 | > 1030 | > 259 | – | > 1030
32 | C=CCOC(=O)[C@@]1(C)CC[C@]2(C)CC[C@]3(C)C(=CC(=O)[C@@H]4[C@@]5(C)CC[C@H](O)C(C)(C)[C@@H]5CC[C@]43C)[C@@H]2C1 | > 2310 | > 2310 | > 578 | – | > 2310
